Measurements as given in PubChem BioAssay AID248 (DTP/NCI, 2004).
“And” between values parts separate entries of the source, which are not always exact repeats. Equal values may be shown once. Inconclusive results and toxic doses are left out. Rule as the data show it: active = T/C of 150% or more; inactive = T/C below 125%.

System: L1210 leukemia ip in BDF1 mice, survival T/C
Test: NCI In Vivo Anticancer Drug Screen. Data for tumor model L1210 Leukemia (intraperitoneal) in B6D2F1 (BDF1) mice
Conditions: endpoint: mean survival time, higher = longer survival
In short: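 Tumor cells were implanted, animals were treated, and survival was followed. The result divides the treated measurement by the vehicle-control measurement.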

[1] = dose: 100.0 mg/kg/injection, schedule: Q04DX003 (ip), vehicle: saline
[2] = dose: 200.0 mg/kg/injection, schedule: Q04DX003 (ip), vehicle: saline
[3] = dose: 100.0 mg/kg/injection, schedule: Q01DX001 (ip), vehicle: saline with Tween-80
[4] = dose: 200.0 mg/kg/injection, schedule: Q01DX001 (ip), vehicle: saline with Tween-80
[5] = dose: 100.0 mg/kg/injection, schedule: Q01DX001 (ip), vehicle: carboxymethylcellulose (CMC)
[6] = dose: 200.0 mg/kg/injection, schedule: Q01DX001 (ip), vehicle: carboxymethylcellulose (CMC)
[7] = dose: 400.0 mg/kg/injection, schedule: Q01DX001 (ip), vehicle: carboxymethylcellulose (CMC)
[8] = dose: 100.0 mg/kg/injection, schedule: Q01DX005 (ip), vehicle: saline
[9] = dose: 100.0 mg/kg/injection, schedule: Q01DX009 (ip), vehicle: saline with Tween-80
[10] = dose: 100.0 mg/kg/injection, schedule: Q04DX003 (ip), vehicle: saline with Tween-80
[11] = dose: 200.0 mg/kg/injection, schedule: Q01DX009 (ip), vehicle: saline with Tween-80
[12] = dose: 200.0 mg/kg/injection, schedule: Q04DX003 (ip), vehicle: saline with Tween-80
[13] = dose: 400.0 mg/kg/injection, schedule: Q01DX009 (ip), vehicle: saline with Tween-80
[14] = dose: 100.0 mg/kg/injection, schedule: Q04DX002 (ip), vehicle: saline with Tween-80
[15] = dose: 200.0 mg/kg/injection, schedule: Q04DX002 (ip), vehicle: saline with Tween-80

Measured: T/C

Cc1ccc(S(=O)(=O)Oc2c(Cl)c(Cl)c(Cl)c(Cl)c2Cl)cc1
inactive: dose: 100.0 mg/kg/injection, schedule: Q01DX001 (ip), vehicle: other 94 % of control | dose: 100.0 mg/kg/injection, schedule: Q01DX009 (ip), vehicle: other 92 % of control | dose: 100.0 mg/kg/injection, schedule: Q04DX003 (ip), vehicle: other 92 % of control | dose: 200.0 mg/kg/injection, schedule: Q01DX001 (ip), vehicle: other 102 % of control | dose: 200.0 mg/kg/injection, schedule: Q01DX009 (ip), vehicle: other 86 % of control | dose: 200.0 mg/kg/injection, schedule: Q04DX003 (ip), vehicle: other 93 % of control | dose: 400.0 mg/kg/injection, schedule: Q01DX001 (ip), vehicle: other 88 % of control | dose: 400.0 mg/kg/injection, schedule: Q04DX003 (ip), vehicle: other 90 % of control

O=C1NCCc2c1[nH]c1ccccc21
inactive: dose: 50.0 mg/kg/injection, schedule: Q01DX009 (ip), vehicle: saline 90 % of control | dose: 100.0 mg/kg/injection, schedule: Q01DX009 (ip), vehicle: saline 91 % of control | [1] 101 % of control | dose: 200.0 mg/kg/injection, schedule: Q01DX009 (ip), vehicle: saline 86 % of control | [2] 93 % of control

COc1cc2c[n+](C)c3c4ccccc4ccc3c2cc1OC
inactive: [3] 88 % of control | [4] 88 % of control

CC(C)[N+]1=C(/C=C/c2ccc3cccnc3c2O)C(C)(C)c2ccccc21
inactive: dose: 50.0 mg/kg/injection, schedule: Q01DX001 (ip), vehicle: carboxymethylcellulose (CMC) 97 % of control | [5] 103 % of control | [6] 95 % of control | [7] 95 % of control

O=c1[nH]c(=O)c2n[nH]c(C3OCC(O)C3O)c2[nH]1 (stereo not given)
inactive: [8] 94 % of control | dose: 200.0 mg/kg/injection, schedule: Q01DX005 (ip), vehicle: saline 97 % of control

CC(C)CCC[C@@H](C)[C@H]1CC[C@H]2[C@@H]3CC[C@H]4C[C@H](NC(=O)N(CCCl)N=O)CC[C@]4(C)[C@H]3CC[C@]12C
inactive: dose: 10.0 mg/kg/injection, schedule: Q01DX001 (ip), vehicle: other 103 % of control | dose: 23.0 mg/kg/injection, schedule: Q01DX001 (ip), vehicle: other 95 % of control | dose: 46.0 mg/kg/injection, schedule: Q01DX001 (ip), vehicle: other 104 % of control | dose: 93.0 mg/kg/injection, schedule: Q01DX001 (ip), vehicle: other 103 % of control | dose: 187.0 mg/kg/injection, schedule: Q01DX001 (ip), vehicle: other 103 % of control | dose: 375.0 mg/kg/injection, schedule: Q01DX001 (ip), vehicle: other 110 % of control | dose: 500.0 mg/kg/injection, schedule: Q01DX001 (ip), vehicle: other 104 % of control | dose: 1000.0 mg/kg/injection, schedule: Q01DX001 (ip), vehicle: other 119 % of control

Cc1ccccc1C(c1ccccc1C)c1ccccc1C(=O)O
inactive: [9] 103 % of control | [10] 105 % of control | [11] 100 % of control | [12] 93 % of control | [13] 97 % of control | dose: 400.0 mg/kg/injection, schedule: Q04DX003 (ip), vehicle: saline with Tween-80 98 % of control

COC1OC2COCOC2C(OS(=O)(=O)c2ccc(C)cc2)C1OS(=O)(=O)c1ccc(C)cc1 (stereo not given)
inactive: dose: 100.0 mg/kg/injection, schedule: Q04DX002 (ip), vehicle: Klucel (hydroxypropylcellulose) (HPC) 100 % of control | [10] 89 % of control | dose: 200.0 mg/kg/injection, schedule: Q04DX002 (ip), vehicle: Klucel (hydroxypropylcellulose) (HPC) 95 % of control | [12] 86 % of control | dose: 400.0 mg/kg/injection, schedule: Q04DX002 (ip), vehicle: Klucel (hydroxypropylcellulose) (HPC) 92 % of control

COc1ccc(C(O)(c2ccccc2)C(O)c2ccccc2)cc1 (stereo not given)
inactive: [9] 98 % of control | [11] 88 % of control | [13] 86 % of control

O=C(O)c1cc(Br)ccc1Br
inactive: [14] 102 % of control | [15] 110 % of control | dose: 400.0 mg/kg/injection, schedule: Q04DX002 (ip), vehicle: saline with Tween-80 105 % of control

O=C(OC1CC=CCC1)c1ccc([N+](=O)[O-])cc1 (stereo not given)
inactive: dose: 100.0 mg/kg/injection, schedule: Q01DX001 (ip), vehicle: Klucel (hydroxypropylcellulose) (HPC) 86 % of control | dose: 200.0 mg/kg/injection, schedule: Q01DX001 (ip), vehicle: Klucel (hydroxypropylcellulose) (HPC) 98 % of control | dose: 400.0 mg/kg/injection, schedule: Q01DX001 (ip), vehicle: Klucel (hydroxypropylcellulose) (HPC) 96 % of control

Cc1ccc(-c2c(C)c(-c3ccccc3)c(-c3ccccc3)c(C)c2-c2ccccc2)cc1C
inactive: [3] 104 % of control | [4] 100 % of control | dose: 400.0 mg/kg/injection, schedule: Q01DX001 (ip), vehicle: saline with Tween-80 100 % of control

CC1=CC(C)(C)NC(=S)N1c1ccc(N=Nc2ccccc2)cc1
inactive: dose: 334.0 mg/kg/injection, schedule: Q01DX Z (ip), vehicle: methylcellulose (MC) 91 % of control | dose: 500.0 mg/kg/injection, schedule: Q01DX Z (ip), vehicle: methylcellulose (MC) 92 % of control

CC[N+](C)(C)CCCNC(=O)C12CC3CC(CC(C3)C1)C2
inactive: dose: 25.0 mg/kg/injection, schedule: Q04DX002 (ip), vehicle: saline 99 % of control | dose: 50.0 mg/kg/injection, schedule: Q04DX002 (ip), vehicle: saline 96 % of control

O=C1CC(N2C(=O)C3C4C=CC(CC4)C3C2=O)C(=O)N1 (stereo not given)
inactive: [1] 97 % of control | [2] 97 % of control | dose: 400.0 mg/kg/injection, schedule: Q04DX003 (ip), vehicle: saline 97 % of control

C1CCC(N=C(NC2CCCCC2)OC2CCCCC2)CC1
inactive: dose: 11.1 mg/kg/injection, schedule: Q01DX Z (ip), vehicle: methylcellulose (MC) 97 % of control | dose: 16.6 mg/kg/injection, schedule: Q01DX Z (ip), vehicle: methylcellulose (MC) 89 % of control | dose: 25.0 mg/kg/injection, schedule: Q01DX Z (ip), vehicle: methylcellulose (MC) 101 % of control

NCCc1cn(C2OC(CO)C(O)C(O)C2O)c2ccccc12 (stereo not given)
inactive: dose: 25.0 mg/kg/injection, schedule: Q01DX005 (ip), vehicle: saline 96 % of control and 106 % of control | dose: 50.0 mg/kg/injection, schedule: Q01DX005 (ip), vehicle: saline 96 % of control | [8] 109 % of control and 87 % of control

Nc1nc2c(nc(Br)n2C2CC(O)C(CO)O2)c(=O)[nH]1 (stereo not given)
inactive: dose: 50.0 mg/kg/injection, schedule: Q01DX001 (ip), vehicle: saline 102 % of control | dose: 100.0 mg/kg/injection, schedule: Q01DX001 (ip), vehicle: saline 102 % of control | dose: 200.0 mg/kg/injection, schedule: Q01DX001 (ip), vehicle: saline 98 % of control | dose: 400.0 mg/kg/injection, schedule: Q01DX001 (ip), vehicle: saline 98 % of control

CC1(C)C2CCC1(C)C(C(=O)C(F)(F)F)C2=O.CC1(C)C2CCC1(C)C(C(=O)C(F)(F)F)C2=O.CC1(C)C2CCC1(C)C(C(=O)C(F)(F)F)C2=O.[Eu] (stereo not given)
inactive: dose: 50.0 mg/kg/injection, schedule: Q04DX002 (ip), vehicle: saline with Tween-80 105 % of control | [14] 94 % of control | [15] 102 % of control

O=C(NCCCl)Nc1ccc(Br)cc1
inactive: [5] 101 % of control | [6] 98 % of control | [7] 115 % of control
